Data: US8466164B2

Key:
[1] = system: Src-Y416 phosphorylation in SaOS-2; experiment: immunoblotting of phospho-Src-Y416 in SaOS-2; format: cell-based, human; conditions: SaOS-2, compounds at their IC50, 3 h
Procedure: Compounds were used at their corresponding IC50. Cells were treated for 3 h prior to their lysis. A) Specific c-Src phosphorylation was evaluated when whole-cell lysates were immunoprobed with anti-nonphospho-Src-Y416 and anti-phospho-Src-Y416 antibodies. B) Graph reports the optical density values relative to immunoreactive bands of phospho-Src-Y416. […] C) Graphical representation of SI-83 (magenta) into the ATP binding pocket of Src. The solvent accessible surface of residues is depicted (blue), while several amino acids, responsible for the major hydrophobic contacts with the binding site, are also shown (cyan).
For Phospho-SrcY416 detection, cells were lysed in ice-cold 0.1% SDS containing a cocktail of protease inhibitors and 1 mM sodium orthovanadate (Sigma-Aldrich). […] All antibodies employed were from Cell Signaling Technology ([…], USA). Proteins were probed with primary antibodies o.n. at 4° C., followed by secondary antibodies for 1 h at room temperature. Detection was obtained by ImmunoStar HRP™ (BioRad). Band areas were detected using ImageScanner™ (Amersham Bioscience, Little Chalfont, GB) and bands' optical densities were analysed by Image Master software (Amersham Bioscience). Band optical densities of Phospho-SrcY416 were normalized against those of total Src as an internal control.

[2] = system: primary human osteoblasts; experiment: flow cytometric apoptosis analysis on primary osteoblasts; conditions: for reduction of pro-apoptotic effect on osteoblasts respecting to SaOS-2: at IC50 (determined on SaOS-2), 48 h
[3] = system: primary human osteoblasts; experiment: MTT cell viability assay on primary human osteoblasts; conditions: 48 h; for reduction of osteoblast growth (inhibitory activity): 25 μM
SaOS-2 cells [4] = experiment: MTT cell viability assay on SaOS-2; conditions: for CV (%) after 24 h (cellular viability with respect to control): 24 h treatment; for CV (%) after 24 h (cellular viability with respect to control) / CV (%) after 48 h (cellular viability with respect to control): control = 100%, mean ± SD; for CV (%) after 48 h (cellular viability with respect to control): 48 h treatment, 25 μM; for IC50: read-out: IC50 on SaOS-2 cell viability, MTT, 1-100 μM, 48 h
normal human osteoblasts = experiment: nodule formation and mineralization (alizarin red S); conditions: IC5, IC20, IC50 (SaOS-2); for tolerance of treatment by osteoblasts: three weeks
SaOS-2 cells [5] = experiment: TUNEL assay on SaOS-2; format: cell-based, human; conditions: 48 h treatment, 12.5 μM
SaOS-2 cells [6] = experiment: flow cytometric cell cycle/apoptosis analysis on SaOS-2; conditions: 48 h, 3 μM to 100 μM
recombinant human Src = recombinant human Src (Homo sapiens, UniProt P12931); experiment: cell-free Src enzymatic assay; format: biochemical; conditions: calculated from ID50; triplicate, mean values; read-out: Ki toward recombinant human Src
[7] = system: phosphorylation of Bcr-Abl (Tyr245), Src (Tyr416) and Lyn (Tyr507); experiment: western blot of kinase phosphorylation in Ba/F3 cells; format: cell-based; conditions: 5 μM, up to 24th h of exposure, Imatinib-sensitive and resistant contexts
Procedure: The inhibitory effects of S29 toward the phosphorylation of Bcr-Abl (Tyr245), Src (Tyr416) and Lyn (Tyr507) were assessed using western blot analysis. Whole cell lysates were obtained from 1×10^7 cells (either untreated or following 24 h and 48 h exposure to 5 μM S29) in lysis buffer.
Protein lysates from whole cells were incubated overnight with the primary antibodies (anti-Abl phosphorylated at Tyr245, Cell Signaling; anti-Src phosphorylated at Tyr416, Cell Signaling; anti-Lyn phosphorylated at Tyr507, Cell Signaling; anti-Lyn, Biosource; anti-Beta-actin, Santa Cruz Biotechnology) and then 1 h at rt with the secondary antibodies (Amersham). Beta actin was used for protein loading control. Signal intensities from 3 repeated blots were quantified by a GS-700 Imagining densitometer (BioRad) equipped with a dedicated software (Molecular Analyst).

[8] = system: Ba/F3 cells expressing mutated Bcr-Abl / IM-resistant cell lines; experiment: Annexin V/PI apoptotic assay on Ba/F3 cells; format: cell-based; conditions: 5 μM
Procedure: Apoptotic assay was performed on 1×10^6 cells and apoptotic cells were recognized by cytofluorimetric analysis of fluorescinated Annexin V (Roche) and PI uptake.

in vitro = conditions: male, human, primary human osteoblasts
mouse osteoclasts = experiment: osteoclast bone resorption assay; format: cell-based
Excerpt: It is very important to note that there is a significant difference in bone resorption for the control (DMSO) in the two experiments reported in FIG. 4. […] The method used to measure bone resorption is based on the growth in vitro of osteoclasts that then resorb bone. However, this cell-based assay is usually characterized by a significant variability, mainly due to the fact that the basic amount of bone resorption can vary among replicates. Although such a limitation, this assay is widely recognized as the gold standard to assess the ability of compounds to inhibit bone resorption by osteoclasts.^53

MG63 = experiment: MTT cell viability assay on MG63; format: cell-based, human; conditions: 48 h
MNNG cells = experiment: MTT cell viability assay on MNNG; format: cell-based, human; conditions: 48 h
U-20S = experiment: MTT cell viability assay on U-20S; format: cell-based, human; conditions: 48 h
SaOS-2 xenograft = SaOS-2 xenograft in nude mice; format: in vivo, CD 1 nude mice
Procedure: In order to evaluate the effect of SI-83 in a preclinical experimental model of osteosarcoma the authors injected s.c. SaOS-2 cells together with Matrigel in nude mice. […] The authors divided mice in three groups containing each 4 mice: mice receiving vehicle (control); mice receiving 50 mg/kg SI-83; mice receiving 100 mg/kg SI-83. The administration of SI-83 determined at endpoint a reduction in xenograft growth respect to control measured as weight reduction (FIG. 6B1). At the dose of 100 mg/kg, SI-83 determined a significant reduction (P<0.01) in tumour weight of about 40% respect to control tumours. Also the administration of 50 mg/kg SI-83 determined a smaller (about 15%) but significant reduction (p<0.05) in tumour volume respect to control (FIG. 6B1). Xenograft tissues were processed for histologic evaluation of phospho-Src expression (FIG. 6B3). Tumour cells in the control group expressed detectable levels of phospho-Src.
CD 1 nude mice (Charles River, Milan, Italy) were maintained under the guidelines established by the authors' Institution (University of L'Aquila, Medical School and Science and Technology School Board Regulations, complying with the Italian government regulation n.116 Jan. 27, 1992 for the use of laboratory animals). Before tumour cells implantation, mice were anesthesized with a mixture of ketamine (25 mg/mL)/xylazine (5 mg/mL). Xenografts were obtained by injecting s.c. 1×10^6 SaOS-2 cells in 100 μL of 12 mg/ml Matrigel (Becton Dickinson). Mice received daily the drug by per os administration at the doses indicated. Tumour growth was monitored daily and at the endpoint, after 26 days, the tumors were excided, weighted and processed for histology. Briefly tumors were fixed in 4% formaldehyde in 0.1 M phosphate buffer, pH 7.2 and embedded in paraffin. Slide-mounted tissue sections (4 μm thick) were deparaffinized in xylene and hydrated serially in 100, 95, and 80% ethanol. Endogenous peroxidases were quenched in 3% H2O2 in PBS for 1 h and then slides were incubated with anti human Src [pY416] phosphospecific antibody (Biosource, Camarillo, Calif., USA) for 1 h at room temperature.

TE-85 = experiment: MTT cell viability assay on TE-85; format: cell-based, human; conditions: 48 h
[9] = system: human primary osteoblasts; experiment: Hoechst staining of primary osteoblasts; conditions: 25 μM

recombinant human Src, sequence (P12931 whole entry): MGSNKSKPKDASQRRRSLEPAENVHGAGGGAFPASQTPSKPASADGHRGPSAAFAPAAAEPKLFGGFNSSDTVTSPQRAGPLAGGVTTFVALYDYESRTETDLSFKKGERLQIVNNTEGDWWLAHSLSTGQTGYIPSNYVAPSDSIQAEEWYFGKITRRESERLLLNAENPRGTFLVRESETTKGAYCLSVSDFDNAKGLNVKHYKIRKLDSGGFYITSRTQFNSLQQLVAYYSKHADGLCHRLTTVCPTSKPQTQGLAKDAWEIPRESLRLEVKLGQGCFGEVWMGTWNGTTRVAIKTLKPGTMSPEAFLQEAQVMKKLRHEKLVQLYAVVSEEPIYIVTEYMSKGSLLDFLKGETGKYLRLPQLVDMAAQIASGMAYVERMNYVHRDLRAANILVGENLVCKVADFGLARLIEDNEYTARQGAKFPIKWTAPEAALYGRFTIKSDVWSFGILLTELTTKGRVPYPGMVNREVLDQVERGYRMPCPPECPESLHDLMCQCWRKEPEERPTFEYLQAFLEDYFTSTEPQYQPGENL

CC(C)(C)n1nc(-c2ccc(Cl)cc2)c2c(N)ncnc21 [PP2, reference compound]
inhibition of phosphorylation of Src at Y416 [1]: 50% | reduction of pro-apoptotic effect on osteoblasts respecting to SaOS-2 [2]: 15% | reduction of osteoblast growth (inhibitory activity) [3]: 50% | concentration at which 83% inhibition of cell viability is obtained (SaOS-2 cells [4]; SaOS-2, MTT): higher than 50 μM | CV (%) after 24 h (cellular viability with respect to control) (SaOS-2 cells [4]; SaOS-2, MTT): 36.8 ± 1.7% | CV (%) after 48 h (cellular viability with respect to control) (SaOS-2 cells [4]; SaOS-2, MTT): 36.4 ± 1.6% | IC50 (SaOS-2 cells [4]): 8.07 µM | tolerance of treatment by osteoblasts (normal human osteoblasts): did not tolerate drug treatment | percentage of Ca2+ inside calcification nodules (normal human osteoblasts; twice a week, 1-3 weeks): always lower than control | pro-apoptotic effect (TUNEL) (SaOS-2 cells [5]): induced apoptosis | cell cycle progression (SaOS-2 cells [6]): stop cell cycle progression in G0 and G1 phases in a dose-dependent manner

Fc1ccc(CNc2ncnc3c2cnn3CC(Cl)c2ccc(Cl)cc2)cc1 (centres unmarked) [S-29]
Ki (recombinant human Src): 500 nM | Bcr-Abl and Lyn-Src kinase phosphorylation [7]: Complementary abrogation | apoptosis induction ([8]; IM-resistant cell lines additioned with IL-3, after 24 h of exposure): apoptosis occurred | apoptosis induction ([8]; mutated cell lines, after 48 h treatment): induced apoptotic death

CSc1nc(Nc2cccc(Cl)c2)c2cnn(CC(Cl)c3ccccc3)c2n1 (centres unmarked) [SI-83]
inhibition of phosphorylation of Src at Y416 [1]: 55% | reduction of pro-apoptotic effect on osteoblasts respecting to SaOS-2 [2]: 79% | apoptosis induced in osteoblasts respecting to PP2 ([2]; at respective IC50, time course 24, 48, 96 h): half of apoptosis | viability at 48 h, 25 µM (in vitro): ~80% | osteoblast viability ([3]; 12.5 μM): not affected at all | reduction of osteoblast growth (inhibitory activity) [3]: 20% | Ki (recombinant human Src): 600 nM | bone resorption (mouse osteoclasts; 10 and 1 μM): abrogate bone resorption | percent inhibition of bone resorption (mouse osteoclasts; reduced test dose (up to 1 nM)): lower but significant | response of cell viability (MG63): less susceptible | CV (%) after 24 h (cellular viability with respect to control) (SaOS-2 cells [4]; SaOS-2, MTT): 17.1 ± 1.3% | CV (%) after 48 h (cellular viability with respect to control) (SaOS-2 cells [4]; SaOS-2, MTT): 15.1 ± 0.7% | IC50 (SaOS-2 cells [4]): 12.6 µM | tolerance of treatment by osteoblasts (normal human osteoblasts): better tolerated | response of cell viability compared with SaOS-2 (MNNG cells): even more responsive than SaOS-2 | pro-apoptotic effect (TUNEL) (SaOS-2 cells [5]): strongest pro-apoptotic effect | response of cell viability (U-20S): less susceptible | reduction in tumour volume respect to control (SaOS-2 xenograft; 50 mg/kg daily per os, endpoint day 26, p<0.05): about 15% | reduction in tumour weight respect to control (SaOS-2 xenograft; 100 mg/kg daily per os, endpoint day 26, P<0.01): about 40% | signs of distress or loss of weight in mice (SaOS-2 xenograft; daily administration): did not determine any appreciable sign of distress or loss of weight | phospho-Src staining of tumour tissues (SaOS-2 xenograft; treated groups, immunohistology Src [pY416]): faint or null staining | response of cell viability (TE-85): less susceptible | cell morphology / DNA damage (Hoechst) [9]: did not alter cell morphology or cause DNA damage
